Experiment [1] concerns the target T1, HiBit-BRG1 fusion protein in stable HeLa cell line expressing HiBit-BRG1 and LgBit (Homo sapiens, UniProt P51532).
T1 construct: expressed in transfected cells
The experiment in a line: HiBiT-BRG1 cell-based degradation assay (Nano-Glo HiBiT, 24 h). Particulars: HeLa HiBit-BRG1/LgBit cells; for DC50: read-out: BRMG1 HiBit Degradation IC50; for Dmax: read-out: BRG1 HiBit Degradation Maximum (%). How it is done:
Procedure: A stable HeLa cell line expressing HiBiT-BRM was generated. On day 0, 5000 cells were seeded in 40 μL of media into each well of 384-well cell culture plates. […] Subsequently plates were incubated for 24 h in a standard tissue culture incubator and equilibrated at room temperature for 15 minutes. Nano-Glo HiBiT Lytic Detection System (Promega N3050) reagent was freshly prepared and 20 ul was added to each well. Upon addition of this LgBit-containing reagent, the HiBiT and LgBiT proteins associate to form the luminescent NanoBiT luciferase. The plates were shaken for 10 minutes at room temperature and the bioluminescence read using an EnVision plate reader (PerkinElmer). For measurement of BRG1 degradation, a stable HeLa cell line expressing HiBit-BRG1 and LgBit was generated. The same protocol as above was then followed. The degradation % was calculated using the following formula: % degradation=100%−100%×(Lumsample−LumLC)/(LumHC−LumLC). DMSO treated cells are employed as High Control (HC) and 2 μM of a known BRM/BRG1 degrader standard treated cells are employed as Low Control (LC).
(HiBiT is a short tag that completes a luciferase, so light tracks the accessible tagged protein.)

Experiment [2] deals with T2, HiBiT-BRM fusion protein in stable HeLa cell line (Homo sapiens, UniProt P51531).
T2 construct: expressed in transfected cells
T2 sequence (P51531 whole entry, the tested form may be a part): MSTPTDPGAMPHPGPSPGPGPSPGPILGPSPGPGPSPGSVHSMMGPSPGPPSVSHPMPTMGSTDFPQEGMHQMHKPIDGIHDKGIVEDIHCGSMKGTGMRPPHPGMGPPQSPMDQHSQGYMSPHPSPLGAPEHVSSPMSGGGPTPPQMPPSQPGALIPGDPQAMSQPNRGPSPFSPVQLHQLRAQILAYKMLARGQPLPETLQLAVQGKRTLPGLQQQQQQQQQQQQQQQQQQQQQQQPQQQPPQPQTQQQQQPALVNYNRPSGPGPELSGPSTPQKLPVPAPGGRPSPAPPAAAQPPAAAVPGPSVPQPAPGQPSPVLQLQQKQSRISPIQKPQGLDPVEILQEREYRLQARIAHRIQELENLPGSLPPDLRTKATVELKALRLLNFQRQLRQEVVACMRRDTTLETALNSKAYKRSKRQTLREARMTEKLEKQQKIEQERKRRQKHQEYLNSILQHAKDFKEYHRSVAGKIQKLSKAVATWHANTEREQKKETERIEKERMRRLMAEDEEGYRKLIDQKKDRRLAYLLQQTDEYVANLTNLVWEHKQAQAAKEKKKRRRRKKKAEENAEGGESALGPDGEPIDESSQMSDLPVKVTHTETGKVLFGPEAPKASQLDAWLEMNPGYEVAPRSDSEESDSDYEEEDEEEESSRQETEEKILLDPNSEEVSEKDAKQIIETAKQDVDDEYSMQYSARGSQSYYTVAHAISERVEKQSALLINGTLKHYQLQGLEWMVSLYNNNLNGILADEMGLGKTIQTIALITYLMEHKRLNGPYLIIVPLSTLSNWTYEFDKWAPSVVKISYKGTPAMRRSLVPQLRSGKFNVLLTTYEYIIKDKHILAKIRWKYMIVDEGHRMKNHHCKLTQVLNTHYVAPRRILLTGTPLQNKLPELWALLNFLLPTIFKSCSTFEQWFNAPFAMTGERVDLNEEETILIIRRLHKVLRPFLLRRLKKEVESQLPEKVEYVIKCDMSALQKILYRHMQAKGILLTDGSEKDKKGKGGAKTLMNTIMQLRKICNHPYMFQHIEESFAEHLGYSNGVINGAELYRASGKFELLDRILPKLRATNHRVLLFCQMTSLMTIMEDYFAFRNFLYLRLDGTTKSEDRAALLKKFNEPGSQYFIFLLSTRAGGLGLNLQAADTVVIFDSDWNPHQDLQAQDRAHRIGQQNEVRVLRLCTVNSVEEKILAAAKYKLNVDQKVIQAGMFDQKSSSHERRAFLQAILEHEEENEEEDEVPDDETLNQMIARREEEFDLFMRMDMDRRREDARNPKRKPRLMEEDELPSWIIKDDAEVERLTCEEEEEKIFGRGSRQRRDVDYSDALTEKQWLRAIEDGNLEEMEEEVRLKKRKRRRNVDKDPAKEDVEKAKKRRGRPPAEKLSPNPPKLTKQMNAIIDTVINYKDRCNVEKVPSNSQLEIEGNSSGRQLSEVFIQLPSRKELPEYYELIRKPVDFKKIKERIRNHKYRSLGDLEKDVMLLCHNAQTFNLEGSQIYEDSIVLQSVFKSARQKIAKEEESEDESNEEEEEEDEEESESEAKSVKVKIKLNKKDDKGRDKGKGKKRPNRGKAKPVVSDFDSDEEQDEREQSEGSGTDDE
The experiment in a line: HiBiT-BRM cell-based degradation assay (Nano-Glo HiBiT Lytic Detection, 24 h). Further details: DC50: scale not given here. The settings on record: HeLa HiBiT-BRM cells; for DC50: read-out: BRM HiBit Degradation IC50; for BRM HiBit Degradation Maximum (%): top dose 30 μM. How it is done: Procedure: A stable HeLa cell line expressing HiBiT-BRM was generated. On day 0, 5000 cells were seeded in 40 μL of media into each well of 384-well cell culture plates. On day 1, cells were treated with 120 nL DMSO or 120 nL of 3-fold serially DMSO-diluted compounds (10 points in duplicate with 30 μM as final top dose). Subsequently plates were incubated for 24 h in a standard tissue culture incubator and equilibrated at room temperature for 15 minutes. Nano-Glo HiBiT Lytic Detection System (Promega N3050) reagent was freshly prepared and 20 ul was added to each well. Upon addition of this LgBit-containing reagent, the HiBiT and LgBiT proteins associate to form the luminescent NanoBiT luciferase. The plates were shaken for 10 minutes at room temperature and the bioluminescence read using an EnVision plate reader (PerkinElmer).
The degradation % was calculated using the following formula: % degradation=100%−100%×(Lumsample−LumLC)/(LumHC−LumLC). DMSO treated cells are employed as High Control (HC) and 2 μM of a known BRM/BRG1 degrader standard treated cells are employed as Low Control (LC).

T1 sequence (P51532 whole entry, the tested form may be a part): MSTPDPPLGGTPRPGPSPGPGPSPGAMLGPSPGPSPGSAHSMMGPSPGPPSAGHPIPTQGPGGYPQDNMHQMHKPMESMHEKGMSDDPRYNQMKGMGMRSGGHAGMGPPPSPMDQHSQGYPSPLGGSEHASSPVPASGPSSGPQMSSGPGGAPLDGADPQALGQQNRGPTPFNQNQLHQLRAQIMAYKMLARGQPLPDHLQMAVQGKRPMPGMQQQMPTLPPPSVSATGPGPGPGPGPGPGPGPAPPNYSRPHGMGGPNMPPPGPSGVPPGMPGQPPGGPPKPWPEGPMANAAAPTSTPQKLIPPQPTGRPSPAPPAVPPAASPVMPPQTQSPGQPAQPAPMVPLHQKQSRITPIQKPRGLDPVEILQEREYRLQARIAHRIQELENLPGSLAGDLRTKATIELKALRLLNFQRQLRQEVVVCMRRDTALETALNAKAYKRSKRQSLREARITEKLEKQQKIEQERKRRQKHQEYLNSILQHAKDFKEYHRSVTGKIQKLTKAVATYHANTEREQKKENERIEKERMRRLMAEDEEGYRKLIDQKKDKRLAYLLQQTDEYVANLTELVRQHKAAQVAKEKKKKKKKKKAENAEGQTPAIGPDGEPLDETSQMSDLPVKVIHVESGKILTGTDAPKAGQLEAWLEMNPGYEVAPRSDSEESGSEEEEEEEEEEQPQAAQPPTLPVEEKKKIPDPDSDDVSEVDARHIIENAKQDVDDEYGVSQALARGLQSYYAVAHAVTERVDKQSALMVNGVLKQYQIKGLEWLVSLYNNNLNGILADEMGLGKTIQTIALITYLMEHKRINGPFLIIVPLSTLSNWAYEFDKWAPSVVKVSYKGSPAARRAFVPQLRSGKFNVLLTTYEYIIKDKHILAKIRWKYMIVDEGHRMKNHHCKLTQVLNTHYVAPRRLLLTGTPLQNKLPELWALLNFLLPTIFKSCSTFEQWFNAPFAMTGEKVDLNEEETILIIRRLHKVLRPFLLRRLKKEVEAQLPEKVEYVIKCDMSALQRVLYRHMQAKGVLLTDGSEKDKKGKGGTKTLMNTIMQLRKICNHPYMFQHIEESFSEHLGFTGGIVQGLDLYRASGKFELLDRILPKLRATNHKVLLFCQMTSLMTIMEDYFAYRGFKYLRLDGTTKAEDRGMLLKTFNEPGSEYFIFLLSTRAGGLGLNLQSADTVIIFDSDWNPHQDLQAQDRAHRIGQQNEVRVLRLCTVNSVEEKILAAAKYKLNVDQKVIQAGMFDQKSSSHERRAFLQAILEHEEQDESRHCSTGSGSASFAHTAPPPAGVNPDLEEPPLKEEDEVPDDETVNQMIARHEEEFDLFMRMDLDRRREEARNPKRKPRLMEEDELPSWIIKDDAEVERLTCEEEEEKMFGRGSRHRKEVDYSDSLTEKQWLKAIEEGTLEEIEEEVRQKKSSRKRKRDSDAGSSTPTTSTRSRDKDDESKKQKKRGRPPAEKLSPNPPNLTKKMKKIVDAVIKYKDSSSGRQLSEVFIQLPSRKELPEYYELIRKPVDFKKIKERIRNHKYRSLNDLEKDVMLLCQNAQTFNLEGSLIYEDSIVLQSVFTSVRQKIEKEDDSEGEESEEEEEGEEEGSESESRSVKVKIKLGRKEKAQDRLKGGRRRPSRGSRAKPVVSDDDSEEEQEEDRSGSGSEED

Take `Cc1ncsc1-c1ccc([C@H](C)NC(=O)[C@@H]2C[C@@H](O)CN2C(=O)[C@@H](c2cc(-c3ccnc(N4CCC(c5ccc6cc(-c7ccccc7O)nnc6c5)CC4)n3)no2)C(C)C)cc1` [Compound 52, (2S,4R)-4-hydroxy-1-((R)-2-(3-(2-(4-(3-(2-hydroxyphenyl)cinnolin-7-yl)piperidin-1-yl)pyrimidin-4-yl)isoxazol-5-yl)-3-methylbutanoyl)-N-((S)-1-(4-(4-methylthiazol-5-yl)phenyl)ethyl)pyrrolidine-2-carboxamide]: the DC50 in experiment [1] is over 10 nM. In addition, the Dmax in experiment [1] (top dose 30 μM) was over 75%. Also, in experiment [2], the DC50 is under 10 nM and the “BRM HiBit Degradation Maximum (%)” value is reported as “A (“A” indicates maximum degradation ≥75%)”.

Turning to `Cc1ncsc1-c1ccc([C@H](C)NC(=O)[C@@H]2C[C@@H](O)CN2C(=O)[C@@H](c2cc(-c3cnc(N4CCN(c5ccc6cc(-c7ccccc7O)nnc6c5)CC4)nc3)no2)C(C)C)cc1` [Compound 47], the “BRG1 HiBit Degradation Maximum (%)” value in experiment [1] (top dose 30 μM) is given as “C (“C” indicates maximum degradation <50%)”. Moreover, the “BRM HiBit Degradation Maximum (%)” value in experiment [2] is “A (“A” indicates maximum degradation ≥75%)”.

For the compound `Cc1ncsc1-c1ccc([C@H](C)NC(=O)[C@@H]2C[C@@H](O)CN2C(=O)[C@@H](c2cc(N3C[C@@H]4[C@H](C3)[C@H]4c3ccc4cc(-c5ccccc5O)nnc4c3)no2)C(C)C)cc1` [Compound 59, (2S,4R)-4-hydroxy-1-((R)-2-(3-((1R,5S,6S)-6-(3-(2-hydroxyphenyl)cinnolin-7-yl)-3-azabicyclo[3.1.0]hexan-3-yl)isoxazol-5-yl)-3-methylbutanoyl)-N-((S)-1-(4-(4-methylthiazol-5-yl)phenyl)ethyl)pyrrolidine-2-carboxamide], the Dmax in experiment [1] (top dose 30 μM) is under 50%. In experiment [2], the DC50 is under 10 nM and the “BRM HiBit Degradation Maximum (%)” value is listed as “A (“A” indicates maximum degradation ≥75%)”.

Turning to `Cc1ncsc1-c1ccc([C@H](C)NC(=O)[C@@H]2C[C@@H](O)CN2C(=O)[C@@H](c2cc(N3CCC4(CC[C@H](c5ccc6cc(-c7ccccc7O)nnc6c5)C4)CC3)no2)C(C)C)cc1` [Compound 92, (2S,4R)-4-hydroxy-1-((R)-2-(3-((S)-2-(3-(2-hydroxyphenyl)cinnolin-7-yl)-8-azaspiro[4.5]decan-8-yl)isoxazol-5-yl)-3-methylbutanoyl)-N-((S)-1-(4-(4-methylthiazol-5-yl)phenyl)ethyl)pyrrolidine-2-carboxamide], the DC50 in experiment [1] was over 10 nM. Further, the Dmax in experiment [1] (top dose 30 μM) is over 75%. For the same compound, in experiment [2], the DC50 is under 10 nM and the “BRM HiBit Degradation Maximum (%)” value was “A (“A” indicates maximum degradation ≥75%)”.

As for `Cc1ncsc1-c1ccc([C@H](C)NC(=O)[C@@H]2C[C@@H](O)CN2C(=O)[C@@H](c2cc(N3CCC4(CC3)CN(c3ccc5cc(-c6ccccc6O)nnc5c3)C4)no2)C(C)C)cc1` [Compound 53, (2S,4R)-4-hydroxy-1-((R)-2-(3-(2-(3-(2-hydroxyphenyl)cinnolin-7-yl)-2,7-diazaspiro[3.5]nonan-7-yl)isoxazol-5-yl)-3-methylbutanoyl)-N-((S)-1-(4-(4-methylthiazol-5-yl)phenyl)ethyl)pyrrolidine-2-carboxamide], the results for the DC50 in experiment [1] and in experiment [2] were over 10 nM and under 10 nM, respectively. In experiment [1] (top dose 30 μM), the Dmax was over 50%. In addition, the “BRM HiBit Degradation Maximum (%)” value in experiment [2] was “A (“A” indicates maximum degradation ≥75%)”.

Turning to `Cc1ncsc1-c1ccc([C@H](C)NC(=O)[C@@H]2C[C@@H](O)CN2C(=O)[C@H](C(C)C)n2cnc(N3CC4(CN(c5ccc6cc(-c7ccccc7O)nnc6c5)C4)C3)n2)cc1` [Compound 267, (2S,4R)-4-hydroxy-1-[(2S)-2-(3-{6-[3-(2-hydroxyphenyl)cinnolin-7-yl]-2,6-diazaspiro[3.3]heptan-2-yl}-1,2,4-triazol-1-yl)-3-methylbutanoyl]-N-[(1S)-1-[4-(4-methyl-1,3-thiazol-5-yl)phenyl]ethyl]pyrrolidine-2-carboxamide], in experiment [1] (top dose 30 μM), the Dmax is under 50%. Also, in experiment [2], the DC50 is over 100 nM and the “BRM HiBit Degradation Maximum (%)” value is listed as “B (“B” indicates maximum degradation ≥50%)”.

Consider `Cc1ncsc1-c1ccc([C@H](C)NC(=O)[C@@H]2C[C@@H](O)CN2C(=O)C(C(C)C)n2cc(N3CCN(CC4CCCN(c5ccc6cc(-c7ccccc7O)nnc6c5)C4)CC3)nn2)cc1` (stereo partly drawn) [Compound 260, (2S,4R)-4-hydroxy-1-(2-(4-(4-((1-(3-(2-hydroxyphenyl)cinnolin-7-yl)piperidin-3-yl)methyl)piperazin-1-yl)-1H-1,2,3-triazol-1-yl)-3-methylbutanoyl)-N-((S)-1-(4-(4-methylthiazol-5-yl)phenyl)ethyl)pyrrolidine-2-carboxamide], for which the DC50 in experiment [1] is over 10 nM. In experiment [1] (top dose 30 μM), the Dmax was over 75%. Further, in experiment [2], the DC50 was over 10 nM and the “BRM HiBit Degradation Maximum (%)” value was “A (“A” indicates maximum degradation ≥75%)”.

Take `Cc1ncsc1-c1ccc([C@H](C)NC(=O)[C@@H]2C[C@@H](O)CN2C(=O)[C@@H](c2cc(N3CCC(Oc4ccc5cc(-c6ccccc6O)nnc5c4)CC3)no2)C(C)C)cc1` [Compound 183, (2S,4R)-4-hydroxy-1-((R)-2-(3-(4-((3-(2-hydroxyphenyl)cinnolin-7-yl)oxy)piperidin-1-yl)isoxazol-5-yl)-3-methylbutanoyl)-N-((S)-1-(4-(4-methylthiazol-5-yl)phenyl)ethyl)pyrrolidine-2-carboxamide]: in experiment [1], the DC50 is over 10 nM. The Dmax in experiment [1] (top dose 30 μM) is over 50%. Besides, in experiment [2], the DC50 was under 10 nM and the “BRM HiBit Degradation Maximum (%)” value is given as “A (“A” indicates maximum degradation ≥75%)”.

Regarding `CC(C)C(C(=O)N1C[C@H](O)C[C@H]1C(=O)N[C@@H](C)c1ccc(C#N)cc1)c1cc(N2CC3(CN(c4ccc5cc(-c6ccccc6O)nnc5c4)C3)C2)no1` (stereo partly drawn) [Compound 112, (2S,4R)-N-((S)-1-(4-cyanophenyl)ethyl)-4-hydroxy-1-(2-(3-(6-(3-(2-hydroxyphenyl)cinnolin-7-yl)-2,6-diazaspiro[3.3]heptan-2-yl)isoxazol-5-yl)-3-methylbutanoyl)pyrrolidine-2-carboxamide], the DC50 in experiment [1] is over 10 nM. The Dmax in experiment [1] (top dose 30 μM) is over 50%. In addition, in experiment [2], the DC50 is under 10 nM and the “BRM HiBit Degradation Maximum (%)” value was “A (“A” indicates maximum degradation ≥75%)”.

For the compound `Cc1ncsc1-c1ccc([C@H](C)NC(=O)[C@@H]2C[C@@H](O)CN2C(=O)[C@H](C(C)C)n2cnc(N3CC4(CN(c5ccc6nnc(-c7ccccc7O)cc6c5)C4)C3)c2)cc1` [Compound 272, (2S,4R)-4-hydroxy-1-((S)-2-(4-(6-(3-(2-hydroxyphenyl)cinnolin-6-yl)-2,6-diazaspiro[3.3]heptan-2-yl)-1H-imidazol-1-yl)-3-methylbutanoyl)-N-((S)-1-(4-(4-methylthiazol-5-yl)phenyl)ethyl)pyrrolidine-2-carboxamide], the Dmax in experiment [1] (top dose 30 μM) is under 50%. In experiment [2], the DC50 is over 100 nM and the “BRM HiBit Degradation Maximum (%)” value is listed as “A (“A” indicates maximum degradation ≥75%)”.

As to `Cc1ncsc1-c1ccc([C@H](C)NC(=O)[C@@H]2C[C@@H](O)CN2C(=O)[C@@H](c2cn(-c3ccc4nnc(-c5ccccc5O)cc4c3)nn2)C(C)C)cc1` (single isomer, unassigned) [Compound 161], the DC50 in experiment [1] was under 10 nM. For the same compound, in experiment [1] (top dose 30 μM), the Dmax was over 75%. For the same compound, in experiment [2], the DC50 was under 10 nM and the “BRM HiBit Degradation Maximum (%)” value is given as “A (“A” indicates maximum degradation ≥75%)”.

Take `Cc1ncsc1-c1ccc([C@H](C)NC(=O)[C@@H]2C[C@@H](O)CN2C(=O)[C@@H](c2cc(N3CCC(N4CC5(CN(Cc6ccc7nnc(-c8ccccc8O)cc7c6)C5)C4)CC3)no2)C(C)C)cc1` [Compound 256, (2S,4R)-4-hydroxy-1-((R)-2-(3-(4-(6-((3-(2-hydroxyphenyl)cinnolin-6-yl)methyl)-2,6-diazaspiro [3.3]heptan-2-yl)piperidin-1-yl)isoxazol-5-yl)-3-methylbutanoyl)-N-((S)-1-(4-(4-methylthiazol-5-yl)phenyl)ethyl)pyrrolidine-2-carboxamide]: the DC50 in experiment [1] was over 10 nM; in experiment [2], over 100 nM. For the same compound, the Dmax in experiment [1] (top dose 30 μM) is over 75%. The “BRM HiBit Degradation Maximum (%)” value in experiment [2] was “B (“B” indicates maximum degradation ≥50%)”.

For the compound `Cc1ncsc1-c1ccc([C@H](C)NC(=O)[C@@H]2C[C@@H](O)CN2C(=O)[C@H](c2cc(-c3cnc(N4CC5(CC(c6ccc7cc(-c8ccccc8O)nnc7c6)C5)C4)nc3)no2)C(C)C)cc1` [Compound 17], in experiment [1] (top dose 30 μM), the Dmax was under 50%. Besides, in experiment [2], the DC50 is over 10 nM and the “BRM HiBit Degradation Maximum (%)” value is on record as “A (“A” indicates maximum degradation ≥75%)”.

The values are drawn from patent US20260193264A1, “BENZOYPARAZINE PYRAZINES AND THEIR USES” (FOGHORN THERAPEUTICS INC., priority 2022, published 2026).
